# From patent publication US20150140015A1, “METHODS AND PHARMACEUTICAL COMPOSITIONS FOR THE TREATMENT OF PANCREATIC CANCER” (INSERM (Institut National de la Sante et de la Recherche …, priority 2013, published 2015)
# Columns and labels:
# [1] = system: AsPC-1 cells xenografted in nude mice; experiment: Tumorigenicity assay: AsPC-1 cells xenografted in nude mice; format: in vivo
# [2] = system: AsPC-1 cells; experiment: Activated caspase-3 immunostaining in AsPC-1 cells; format: cell-based, human; conditions: 1 μM orexin-A, 48 hr
# Method: FIG. 4A-C. Effect of orexin-A on apoptosis in AsPC-1 cells. A, SHP-2 protein tyrosine phosphatase inhibitor, NSC-87877, blocks orexin-induced apoptosis. AsPC-1 cells were challenged with (black bars) or without (white bars) 1 μM orexin-A for 48 hr in the absence or presence of NSC-87877 (50 μM). Apoptosis was measured by determination of annexin V-PE binding, and results are expressed as the percentage of apoptotic cells; B and C: Indirect immunostaining of activated caspase-3 in AsPC-1 cells in the presence or absence of orexin-A. Paraformaldehyde-fixed AsPC-1 cells were challenged with (orexin-A) or without (basal) 1 μM orexin-A for 48 hr. Activated caspase-3 immunostaining is shown in B and scored in C. […]
# After dewaxing, rehydrating tumor paraffin sections, and antigen retrieval by pretreatment with high temperature at pH 9, immunohistochemical procedures were carried out using an automated immunohistochemical stainer according to the manufacturer's guidelines (Bond-Max slide stainer, Menarini, Leica Microsystems). […] OX1R immunostaining was evaluated by two investigators (TV and AC) by calculating a score (0-300) obtained by multiplying the intensity (negative, 0; weak, 1; moderate, 2; and strong, 3) by the percentage of stained cells. The pattern of expression (cytoplasmic, membranous, and nuclear) was also recorded, and a mean score was calculated for each tumor. […]
# [3] = system: parental HPAF-II cells xenografted in nude mice; experiment: Tumorigenicity assay: parental HPAF-II cells xenografted in nude mice; format: in vivo; conditions: daily treatment with 1 mole orexin-A/kg (so in the source)
# Method: FIG. 8A-C. Effect of daily inoculation of orexin-A on the growth of tumors developed by xenografting OX1R expressing recombinant HPAF-II cells in nude mice. Parental HPAF-II (A) or recombinant OX1R/HPAF-II/cells (B) were inoculated in the flank of nude mice at day 0. Mice were injected daily intraperitoneally with 100 μl of 1 μmoles of orexin-A/Kg solutions starting at day 0 for both cell lines (◯) or day 28 for OX1R/HPAF-II cells (▴) or with 100 μl of PBS ([…]) for controls. The development of tumors was followed by caliper measurement; C. Formalin-fixed xenografted HPAF-II or OX1R/HPAF-II tumors from nude mice intraperitoneally injected daily or not with 1 μmoles/Kg orexin-A were analyzed by cleaved caspase-3 immunostaining. Cleaved caspase-3 positive cells were counted in 10 different fields, each comprising 500 tumoral cells, in the presence (black bars) or absence (white bars) of 50 days orexin-A treatment. Data are the means±SE of 6 tumors in each group; *** p<0.01 versus control.
# Control mice received PBS.
substance,measurement,setting,value
"orexin-A: 33 amino acid hypothalamic neuropeptide, OX1R agonist, SEQ ID NO:2; peptide from GL Biochemicals",tumor volume decrease under other injection frequencies,[1]; 2 or 3 injections/week (data not shown),same results
same,reduction of tumor volume versus daily injections,[1]; once or twice weekly therapy (data not shown),equivalent or even more effective
same,cleavage and activation of caspase 3,[2],induced the cleavage and activation of caspase 3
same,tumor growth inhibition,[3],unable to promote tumor growth inhibition
